“Also recorded” adds a separate entry of the source.
Tests used:
[1] = cited from earlier work
[2] = test system: HeLa cells; test: Cell migration assay of HeLa cells on lipid multilayer films made by evaporative edge lithography; format: cell-based; conditions: for collective cell migration compared to control group: lipid encapsulated film; for collective cell migration compared to control group / migration rate of HeLa cells versus lipid thickness: 24 hours; for HeLa cell migration (qualitative effect): drug delivered from encapsulated lipid films; for migration rate of HeLa cells versus lipid thickness: lipid only
Procedure: Polydimethylsiloxane (PDMS) was cured from the SYLGARD® 184 silicone elastorner kit in a 60° C. oven overnight. PDMS strips of 15 mm long by 1 mm wide were placed between 500-800 μm apart on prepared glass coverslips before addition of lipid mixtures. 1,2-dioleoyl-3-trimethylammonium-propane (chloride salt) (DOTAP) and 1,2-dioleoyl-sn-glycerol-3-phosphoethanolamine-N-(lissamine rhodamine b sulfonyl) (ammonium salt) (DOPE-rhodamine) were purchased from Avanti Polar Lipids. To create lipid only solutions, DOTAP was mixed with 1 molar percent (mol %) DOPE-rhodamine in chloroform and dried overnight in a vacuum pump desiccators at 16 LM 15 Torr 7.4 PSIG to remove solvent. Ethanol (100%) was added to suspend dried lipid powder and 1 μl was deposited in each PDMS channel and the array was dried overnight in a vacuum to remove residual ethanol. A similar procedure was used for docetaxel encapsulated lipid solutions and the drug was dissolved in ethanol prior to adding to the dried lipid powder.
The prepared assays on glass coverslips were placed individually wells of a 6-well plate for cell culture. For experiments, cells were seeded onto the prepared patterned glass coverslips by gently pipetting the cell suspension (2.5×10^5 cells/ml, 1 ml per coverslip) directly over each PDMS channel to allow cells to settle in them. The same method was used to seed other parts of the slide for use as control areas. Cells were allowed to settle for 1-2 hours before the PDMS barriers were removed to promote cell migration. After barrier removal, the coverslips were washed once with HBSS and replaced with fresh growth media. The cells were incubated over the patterned areas for up to 24 hours. Width of each cell strip was measure by hand with Nikon Elements 4.0 analysis software and the average migration rate for each strip was determined with the following equation: Migration Rate (μm/hr)=(WidthT=24 hrs−WidthT=0 hrs/24hrs.
Width is the average width in micrometers (μm) of the cell monolayer measured either at the beginning of the experiment (T=0 hrs) or at the end (T=24 hours).
The images for cell migration were captured on a Nikon Ti Eclipse inverted microscope with 4× or 10× objectives. Images for cell migration were taken after barrier removal and once again 24 hours after incubation period in phase contrast. Fluorescent filters used were B-2E/C and G-2E/C for red and green emitting dyes.
(§1) A student t-test was performed to determine statistical significance between means of each sample (p-value <0.05). Error bars in figures are standard error of the mean for n samples. Characterizing the edge lipid films produced a total of n=20 samples and middle lipid film measurements produced n=10 samples. Cell density experiments were performed in triplicates (n=3). All samples for cell migration were taken in triplicate and replicated three times (n=9).

[3] = cited from earlier work; remark: listed apart in the source
[4] = test system: HeLa cells; test: Cell adhesion experiments on lipid films of different multilayer thickness; format: cell-based
Procedure: Lipids were dissolved in ethanol and added to each channel in increasing amounts from 0.2 ng to 20 μg. Tests for cell attachment were performed by seeding HeLa cells into assay channel with varying amounts of lipid films. Cells were allowed to attach for two hours before washing the channels repeatedly 5 times. Prior to counting, cells were incubated with live-cell fluorescent dye (SYTO9, Invitrogen). The number of cells per square micron area (μm^2) that remained attached was counted manually. Experiments for cell adhesion where performed in three replicates. Values for cell density of each treatment were determined by averaging the number of cells in 5 random 100 μm^2 areas in a single image captured at a 4× magnification.
as §1

| SMILES | solubility in water [1] | migration rate of the cells, dose dependence ([2]; delivered by encapsulated lipid films, over 24 hours) | collective cell migration compared to control group ([2]; docetaxel to lipid ratio (by mass) 1:2) | collective cell migration compared to control group ([2]; docetaxel to lipid ratio (by mass) 1:4) | collective cell migration compared to control group ([2]; docetaxel to lipid ratio (by mass) 1:10) | HeLa cell migration (qualitative effect) [2] | log P [3] | HeLa cell adhesion to lipid films compared to untreated glass ([4]; concentrations higher than 20 μg/ml, 2 hours of incubation) | HeLa cell adhesion to lipid films ([4]; films created from 20 ng (initial solution 20 μg/ml) or lower, 2 hours of incubation) | HeLa cell morphology and viability on lipid multilayers ([4]; lipid multilayers created from 200 ng of lipids or more, compared to thinner multilayers) | migration rate of HeLa cells versus lipid thickness ([2]; channels from lipid solutions of 20 μg/ml or lower) | migration rate of HeLa cells versus lipid thickness ([2]; lipid solutions above 20 μg/ml) |
| --- | --- | --- | --- | --- | --- | --- | --- | --- | --- | --- | --- | --- |
| CC(=O)O[C@@]12CO[C@@H]1C[C@H](O)[C@@]1(C)C(=O)[C@H](O)C3=C(C)[C@@H](OC(=O)[C@H](O)[C@@H](NC(=O)OC(C)(C)C)c4ccccc4)C[C@@](O)([C@@H](OC(=O)c4ccccc4)[C@H]21)C3(C)C [docetaxel] | less than 0.025 mg/L | reduced the migration rate of the cells dose-dependently | significantly (p<0.05) reduce collective cell migration | significantly (p<0.05) reduce collective cell migration | significantly (p<0.05) reduce collective cell migration | significantly inhibit cellular migration; also recorded: inhibited |  |  |  |  |  |  |
| C[C@H]1CCC/C=C/[C@@H]2C[C@H](O)C[C@H]2[C@H](O)/C=C/C(=O)O1 [brefeldin A] |  |  |  |  |  | inhibited | 1.61 |  |  |  |  |  |
| CCCCCCCC/C=C\CCCCCCCC(=O)OCC(C[N+](C)(C)C)OC(=O)CCCCCCC/C=C\CCCCCCCC.[Cl-] (stereo not shown) [DOTAP, 1,2-dioleoyl-3-trimethylammonium-propane (chloride salt)] |  |  |  |  |  |  |  | adhere significantly less (p<0.05) | adherent | exhibited abnormal morphology and appeared dead | not significantly (p<0.05) affected | significantly hindered |
